system: 186277-243-T-J2-PDC spheroids with HUVEC/MSC, viability; experiment: Anticancer human tumor 186277-243-T-J2-PDC patient-derived colon adenocarcinoma cell line growth inhibition [CLK]; conditions: second compound 0.0316 µM; first compound 3.16 µM; active compounds read low
Method in brief: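 Multi-cell-type spheroids combined patient-derived tumor cells with HUVEC endothelial cells and human mesenchymal stem cells. Paired agents were dosed in half-log steps down from about clinical Cmax, or from 10 microM where Cmax was unknown.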
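Further: compound exposure lasted seven days before readout; 100% = DMSO vehicle control wells.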

Row | SMILES | viability, T/C
1 | O=C(c1cc(Cc2n[nH]c(=O)c3ccccc23)ccc1F)N1CCN(C(=O)C2CC2)CC1 + CNC(=O)c1ccc(Nc2nc(OC3CCCC3)c3c(-c4ccc5nc(C)oc5c4)c[nH]c3n2)c(OC)c1 | 115%
2 | COC1C=CCC(C)C(C)S(=O)(=O)NC(=O)c2ccc3c(c2)N(CC2CCC21)CC1(CCCc2cc(Cl)ccc21)CO3 (stereo unspecified) + CN1CCN(c2cc(C(=O)Nc3cc4cc(-c5cnn(C)c5)ccc4cn3)ccn2)CC1 | 64.4%
3 | C#Cc1c(F)ccc2cc(O)cc(-c3ncc4c(N5CC6CCC(C5)N6)nc(OCC56CCCN5CC(F)C6)nc4c3F)c12 (stereo unspecified) + CNC(=O)c1ccc(Nc2nc(OC3CCCC3)c3c(-c4ccc5nc(C)oc5c4)c[nH]c3n2)c(OC)c1 | 15.4%
4 | C=C(F)C(=O)N1CCN(c2nc(OCC3CCCN3C)nc3c2CCN(c2cccc4cccc(Cl)c24)C3)CC1CC#N (stereo unspecified) + CN1CCN(c2cc(C(=O)Nc3cc4cc(-c5cnn(C)c5)ccc4cn3)ccn2)CC1 | 106%

same assay, conditions: second compound 0.0316 µM; first compound 10 µM; active compounds read low

Row | SMILES | viability, T/C
5 | O=C(c1cc(Cc2n[nH]c(=O)c3ccccc23)ccc1F)N1CCN(C(=O)C2CC2)CC1 + CNC(=O)c1ccc(Nc2nc(OC3CCCC3)c3c(-c4ccc5nc(C)oc5c4)c[nH]c3n2)c(OC)c1 | 120%
6 | COC1C=CCC(C)C(C)S(=O)(=O)NC(=O)c2ccc3c(c2)N(CC2CCC21)CC1(CCCc2cc(Cl)ccc21)CO3 (stereo unspecified) + CN1CCN(c2cc(C(=O)Nc3cc4cc(-c5cnn(C)c5)ccc4cn3)ccn2)CC1 | 3.46%
7 | C#Cc1c(F)ccc2cc(O)cc(-c3ncc4c(N5CC6CCC(C5)N6)nc(OCC56CCCN5CC(F)C6)nc4c3F)c12 (stereo unspecified) + CNC(=O)c1ccc(Nc2nc(OC3CCCC3)c3c(-c4ccc5nc(C)oc5c4)c[nH]c3n2)c(OC)c1 | 9.35%
8 | C=C(F)C(=O)N1CCN(c2nc(OCC3CCCN3C)nc3c2CCN(c2cccc4cccc(Cl)c24)C3)CC1CC#N (stereo unspecified) + CN1CCN(c2cc(C(=O)Nc3cc4cc(-c5cnn(C)c5)ccc4cn3)ccn2)CC1 | 24.9%

same assay, conditions: second compound 0.1 µM; first compound 0.00316 µM; active compounds read low

Row | SMILES | viability, T/C
9 | COc1c(OCCCN2CCOCC2)ccc2c3n(c(=NC(=O)c4cnc(N)nc4)nc12)CCN3 + CNC(=O)c1ccc(Nc2nc(OC3CCCC3)c3c(-c4ccc5nc(C)oc5c4)c[nH]c3n2)c(OC)c1 | 49.4%

same assay, conditions: second compound 0.1 µM; first compound 0.01 µM; active compounds read low

Row | SMILES | viability, T/C
10 | COc1c(OCCCN2CCOCC2)ccc2c3n(c(=NC(=O)c4cnc(N)nc4)nc12)CCN3 + CNC(=O)c1ccc(Nc2nc(OC3CCCC3)c3c(-c4ccc5nc(C)oc5c4)c[nH]c3n2)c(OC)c1 | 42.1%

same assay, conditions: second compound 0.1 µM; first compound 0.0316 µM; active compounds read low

Row | SMILES | viability, T/C
11 | COc1c(OCCCN2CCOCC2)ccc2c3n(c(=NC(=O)c4cnc(N)nc4)nc12)CCN3 + CNC(=O)c1ccc(Nc2nc(OC3CCCC3)c3c(-c4ccc5nc(C)oc5c4)c[nH]c3n2)c(OC)c1 | 23.9%
12 | O=C(c1cc(Cc2n[nH]c(=O)c3ccccc23)ccc1F)N1CCN(C(=O)C2CC2)CC1 + CNC(=O)c1ccc(Nc2nc(OC3CCCC3)c3c(-c4ccc5nc(C)oc5c4)c[nH]c3n2)c(OC)c1 | 88.7%
13 | COC1C=CCC(C)C(C)S(=O)(=O)NC(=O)c2ccc3c(c2)N(CC2CCC21)CC1(CCCc2cc(Cl)ccc21)CO3 (stereo unspecified) + CN1CCN(c2cc(C(=O)Nc3cc4cc(-c5cnn(C)c5)ccc4cn3)ccn2)CC1 | 87.5%
14 | C#Cc1c(F)ccc2cc(O)cc(-c3ncc4c(N5CC6CCC(C5)N6)nc(OCC56CCCN5CC(F)C6)nc4c3F)c12 (stereo unspecified) + CNC(=O)c1ccc(Nc2nc(OC3CCCC3)c3c(-c4ccc5nc(C)oc5c4)c[nH]c3n2)c(OC)c1 | 32.4%
15 | C=C(F)C(=O)N1CCN(c2nc(OCC3CCCN3C)nc3c2CCN(c2cccc4cccc(Cl)c24)C3)CC1CC#N (stereo unspecified) + CN1CCN(c2cc(C(=O)Nc3cc4cc(-c5cnn(C)c5)ccc4cn3)ccn2)CC1 | 82.7%

same assay, conditions: second compound 0.1 µM; first compound 0.1 µM; active compounds read low

Row | SMILES | viability, T/C
16 | COc1c(OCCCN2CCOCC2)ccc2c3n(c(=NC(=O)c4cnc(N)nc4)nc12)CCN3 + CNC(=O)c1ccc(Nc2nc(OC3CCCC3)c3c(-c4ccc5nc(C)oc5c4)c[nH]c3n2)c(OC)c1 | 9.52%
17 | O=C(c1cc(Cc2n[nH]c(=O)c3ccccc23)ccc1F)N1CCN(C(=O)C2CC2)CC1 + CNC(=O)c1ccc(Nc2nc(OC3CCCC3)c3c(-c4ccc5nc(C)oc5c4)c[nH]c3n2)c(OC)c1 | 81.7%
18 | COC1C=CCC(C)C(C)S(=O)(=O)NC(=O)c2ccc3c(c2)N(CC2CCC21)CC1(CCCc2cc(Cl)ccc21)CO3 (stereo unspecified) + CN1CCN(c2cc(C(=O)Nc3cc4cc(-c5cnn(C)c5)ccc4cn3)ccn2)CC1 | 91.2%
19 | C#Cc1c(F)ccc2cc(O)cc(-c3ncc4c(N5CC6CCC(C5)N6)nc(OCC56CCCN5CC(F)C6)nc4c3F)c12 (stereo unspecified) + CNC(=O)c1ccc(Nc2nc(OC3CCCC3)c3c(-c4ccc5nc(C)oc5c4)c[nH]c3n2)c(OC)c1 | 20.2%
20 | C=C(F)C(=O)N1CCN(c2nc(OCC3CCCN3C)nc3c2CCN(c2cccc4cccc(Cl)c24)C3)CC1CC#N (stereo unspecified) + CN1CCN(c2cc(C(=O)Nc3cc4cc(-c5cnn(C)c5)ccc4cn3)ccn2)CC1 | 76.7%

same assay, conditions: second compound 0.1 µM; first compound 0.316 µM; active compounds read low

Row | SMILES | viability, T/C
21 | COc1c(OCCCN2CCOCC2)ccc2c3n(c(=NC(=O)c4cnc(N)nc4)nc12)CCN3 + CNC(=O)c1ccc(Nc2nc(OC3CCCC3)c3c(-c4ccc5nc(C)oc5c4)c[nH]c3n2)c(OC)c1 | 9.27%
22 | O=C(c1cc(Cc2n[nH]c(=O)c3ccccc23)ccc1F)N1CCN(C(=O)C2CC2)CC1 + CNC(=O)c1ccc(Nc2nc(OC3CCCC3)c3c(-c4ccc5nc(C)oc5c4)c[nH]c3n2)c(OC)c1 | 88.3%
23 | COC1C=CCC(C)C(C)S(=O)(=O)NC(=O)c2ccc3c(c2)N(CC2CCC21)CC1(CCCc2cc(Cl)ccc21)CO3 (stereo unspecified) + CN1CCN(c2cc(C(=O)Nc3cc4cc(-c5cnn(C)c5)ccc4cn3)ccn2)CC1 | 74%
24 | C#Cc1c(F)ccc2cc(O)cc(-c3ncc4c(N5CC6CCC(C5)N6)nc(OCC56CCCN5CC(F)C6)nc4c3F)c12 (stereo unspecified) + CNC(=O)c1ccc(Nc2nc(OC3CCCC3)c3c(-c4ccc5nc(C)oc5c4)c[nH]c3n2)c(OC)c1 | 12.4%
25 | C=C(F)C(=O)N1CCN(c2nc(OCC3CCCN3C)nc3c2CCN(c2cccc4cccc(Cl)c24)C3)CC1CC#N (stereo unspecified) + CN1CCN(c2cc(C(=O)Nc3cc4cc(-c5cnn(C)c5)ccc4cn3)ccn2)CC1 | 81.4%

same assay, conditions: second compound 0.1 µM; first compound 1 µM; active compounds read low

Row | SMILES | viability, T/C
26 | COc1c(OCCCN2CCOCC2)ccc2c3n(c(=NC(=O)c4cnc(N)nc4)nc12)CCN3 + CNC(=O)c1ccc(Nc2nc(OC3CCCC3)c3c(-c4ccc5nc(C)oc5c4)c[nH]c3n2)c(OC)c1 | 5.48%

Source: PubChem BioAssay AID2060625 (Molecular Pharmacology Branch, DTP, NCI, 2025)
